Results taken from publication PMC11160895 (Research Square, 2024).

Key:
TCR4 = test: SPR binding of TCR4 to peptide/HLA-A3 complexes, 4 °C; details: HBS-EP pH 7.4, gp100 presented by HLA-A2 as irrelevant negative control
Procedure: To help ensure the stability of the samples, we also performed the experiments at the reduced temperature of 4 °C.
Affinities and binding kinetics were measured via surface plasmon resonance using a Biacore T200 instrument. […] The s3–4 scTv was employed as a positive control and the irrelevant Tax11–19/HLA-A*02:01 or gp100/HLA-A*02:01 complexes as a negative control. […] Experiments were performed at either 4 °C or 25 °C as indicated with a blank activated and deactivated flow cell as reference. Binding affinities were determined by fitting the curve of the reference-subtracted steady-state responses against the injected protein concentrations to a 1:1 binding model in OriginPro 2024. For measurements of dissociation rates, experiments were performed at 4 °C. TCRs or the s3–4 scTV were immobilized to approximately 300 RU on a CM5 Series S sensor chip with peptide/MHC complexes injected at a flow rate of 100 μL/min. The dissociation rate (koff) of a TCR-pMHC binding was determined by fitting the dissociation phase of the sensorgram to a single exponential decay function in OriginPro 2024. The association rate (kon) was calculated from the ratio of measured koff and the separately measured KD at 4 °C using kon=koff/KD.

neoantigen-specific TCRs = details: cited from earlier work
From the text: The slight change in the position of the side chain in the complex with TCR3 distorts the geometry of this interaction, although the side chain is still embedded in a complex electrostatic environment with structur ...

HLA-A3 [1] = biological target: T1, HLA-A3 (Homo sapiens, UniProt P04439); details: fluorescence anisotropy, position 5 5-carboxyfluorescein-lysine peptide, 100 nM complex + 100 μM unlabeled peptide, 20 mM NaH2PO4, 75 mM NaCl, pH 7.4; cited from earlier work
T1 sequence (P04439 25-308 limits assumed): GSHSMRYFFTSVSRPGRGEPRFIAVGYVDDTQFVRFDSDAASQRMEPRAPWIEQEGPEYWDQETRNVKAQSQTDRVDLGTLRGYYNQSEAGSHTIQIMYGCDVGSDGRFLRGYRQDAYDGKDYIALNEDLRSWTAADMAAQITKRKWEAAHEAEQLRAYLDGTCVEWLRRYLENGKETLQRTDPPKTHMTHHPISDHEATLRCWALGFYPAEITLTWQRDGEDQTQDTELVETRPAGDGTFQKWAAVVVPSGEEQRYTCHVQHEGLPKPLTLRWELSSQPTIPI
T1 sequence (P61769 21-119 partner): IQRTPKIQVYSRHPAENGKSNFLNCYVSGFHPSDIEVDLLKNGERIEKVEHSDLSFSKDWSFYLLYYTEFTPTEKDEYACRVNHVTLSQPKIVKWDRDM
From the text: (§1) Anticipating lengthy NMR data collection times, we first verified the stability of the peptide/HLA-A3 complexes.

HLA-A3 [2] = biological target: T1, HLA-A3; test: Peptide dissociation from HLA-A3 by fluorescence anisotropy; details: 100 nM labeled complex + 100 μM unlabeled peptide, pH 7.4
Procedure: as §1
Fluorescence anisotropy measurements for peptide dissociation were performed as previously described ([15]). […] Changes in anisotropy were recorded as a function of time.

T cells expressing TCR4 = test: T cell degranulation CD107a, TCR4-transduced T cells co-cultured with HLA-A3+ antigen presenting cells; details: peptide concentrations as high as 10 μM
Procedure: The peptide specificity of TCR-transduced T cells was assessed by intracellular cytokine staining (ICS) using the BD Cytofix/CytoPerm Plus Kit, following manufacturer’s instructions. Cos-7 cells were electroporated with 100 μg/mL of HLA-A*03:01 mRNA and plated into 96-well round-bottom plates overnight. […] Cells were washed with 1x PBS to remove any unbound peptide. […] Cells were washed with 1×PBS and then fixed and permeabilized for 15 minutes at 4 °C. […] All antibodies were used at a final concentration of 5 μg/mL. Finally, cells were washed with perm-wash buffer, suspended in 2% FBS in PBS and acquired on an X20 LSR Fortessa flow cytometer with the BD FACSDiva software.

HLA-A3 [3] = biological target: T1, HLA-A3; test: 19F NMR of 5F-Trp6 peptides bound to HLA-A3; design: the extracellular domain of the MHC heavy chain, β2-microglobulin, TCR α and β chains, and the s3–4 scTv were overexpressed in E coli; made in house
Procedure: ^19F NMR spectra were recorded using Bruker 600 MHz NMR instrument with a QCI cryogenic probe at NMRFAM, University of Wisconsin-Madison. […] To obtain similar sensitivities on the two samples at different concentrations, the total acquisition times of the 1D experiments in Figs. 7A–F in were set to approximately 12 hours and 33 hours, accordingly. The spectra were acquired in 4-hour blocks interleaved with proton 1D recordings to verify sample stability. For the data in Extended Data Figs. 6D,E total acquisition times were 20 minutes for both complexes. Probe temperature was maintained at a calibrated value of 5.2 °C. Once all blocks were recorded, they were checked individually for frequency drift, which was not detected, and combined to obtain combined datasets with improved signal/noise ratio. The reference frequency of the ^19F channel was set through internal routines of the Topspin acquisition software after the NMR spectrometer was locked on D2O. […] To improve the signal/noise ratio, we compared recording of ^19F 1D spectra with and without proton decoupling. […] We also optimized a recycle delay for the fluorine 1D experiment and determined that 1 s was the optimal time. Therefore, D1 of 0.4 s was used with AQ of 0.59 s. Line shape deconvolution was performed using Mestrelab MNova NMR. Free induction decays were processed with an exponential window function, Fourier- transformed, and baseline corrected prior to fitting with Lorentzian line shapes. CEST experiments were performed by applying 10–40 μW irradiation on a proton channel at a desired ppm position for 0.4 s. The total acquisition time for each CEST dataset was 2 hours. The bandwidth of the saturation pulse was directly measured on a free peptide sample by varying the saturation ppm position around the sharp peptide peak. The direct effect of the pre-saturation pulse was found detectable within +/− 0.5 ppm from the irradiation position. Exchange Spectroscopy (EXSY) experiments were performed with 50 ms mixing time. […] Data were collected in four six-hour blocks that were combined for processing.

Sequence: AHHGGWTTK [WT peptide, wild-type PIK3CA counterpart peptide presented by HLA-A3]
- binding to TCR4 (detection) (TCR4): No binding was detectable
- recognition by multiple neoantigen-specific TCRs (neoantigen-specific TCRs): unable to recognize the WT peptide/HLA-A3 complex
- stability of peptide/HLA-A3 complex at 37 °C (HLA-A3 [1]): markedly less stable
- stability of peptide/HLA-A3 complex at 25 °C (HLA-A3 [2]): markedly less stable
- T cell stimulation (CD107a) (T cells expressing TCR4): no stimulation was evident
- number of 19F peaks of the complex by line shape fitting (HLA-A3 [3]; 5F-Trp6 peptide/HLA-A3 complex, 5 °C): at least eight
- conformational exchange (CEST) (HLA-A3 [3]; 5F-Trp6 peptide/HLA-A3 complex, 5 °C, EXSY consistent): all the peaks were in exchange except for the peak at −125.12 ppm
- stability of complex on storage (19F NMR) (HLA-A3 [3]; approximately 11 months at 4 °C, 5F-Trp6 peptide/HLA-A3): significant increase in the resonance at −125.12 ppm
